Measured values: patent US5242945A, “Tetronic and thiotetronic acid derivatives as phospholipase A2 inhibitors” (American Home Products Corporation, priority 1991, dated 1993)
pIC50: −log10 of the molar value.

Experiments:
human platelet PLA2 = target: T1, human platelet PLA2 (Homo sapiens, UniProt P14555); assay: in vitro isolated phospholipase A2 assay, human platelet PLA2; type: biochemical; conditions: for inhibition at 10 µM: + values given without explanation, read-out: % Inhibition HP (human platelet); for pIC50: Table IV, read-out: IC50 HP (human platelet)
T1 construct: platelet acid extract PLA2; from tissue; host or cells: human platelets, semipurified acid extract
T1 sequence (P14555 21-144): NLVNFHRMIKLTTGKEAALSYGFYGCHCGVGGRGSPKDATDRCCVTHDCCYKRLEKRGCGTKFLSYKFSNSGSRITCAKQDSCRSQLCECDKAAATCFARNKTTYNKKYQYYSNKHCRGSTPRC
Outline: (§1)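 PLA2 from semipurified human platelet acid extract or purified human synovial fluid, preincubated 30 min at room temperature with compound. ³H-arachidonate-labelled E. coli substrate then added in Tris-HCl pH 7.5, with enzyme giving about 12% hydrolysis. Reaction ran 10 min at 37° C; released arachidonic acid recovered on NH2 columns and measured by β-counting.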

[1] = target: T2, human synovial fluid PLA2 (Homo sapiens, UniProt P14555); assay: in vitro isolated phospholipase A2 assay, human synovial fluid PLA2; type: biochemical; conditions: for pIC50: Table IV, read-out: IC50 HSF (human synovial fluid); for inhibition at 10 µM: + values given without explanation, read-out: % Inhibition HSF (human synovial fluid)
T2 construct: Purified human synovial fluid; from tissue; host or cells: human synovial fluid
T2 sequence (P14555 21-144): T1 sequence (P14555 21-144)
Outline: as §1

5-lipoxygenase (LTC4) = assay: resident murine peritoneal macrophage assay, LTC4; type: cell-based, mouse (Swiss Webster); conditions: for pIC50: read-out: LTC4 zymosan IC50; for LTC4 AA % Inhibition: arachidonic acid stimulation
Description: The ability of the compounds of the invention to act as inhibitors of the enzymes 5-lipoxygenase and cyclooxygenase is measured in the resident murine peritoneal macrophage assay.
Resident peritoneal macrophages are collected from female Swiss Webster mice (49 days old, 20-25 gms, Buckshire) by lavaging with 7-8 ml Hanks Balanced Salt Solution (HBSS) without Ca^++ and Mg^++ (GIBCO). The lavage fluid from several mice is pooled and centrifuged at 4° C. for 10 minutes at 400 xg.
Residual serum and cellular debris are removed from the monolayers by washing 3× with 2 ml HBSS containing Ca^++ and Mg^++. Macrophages are preincubated for 5 minutes with 1 ml serum-free M199 containing 10 μl dimethyl sulfoxide (DMSO) vehicle or test compound prior to cell activation with zymosan ([…]) or arachidonic acid (AA) (2 μM). After 2 hours, the supernatants are removed and either assayed for LTC4 and PGE2 by radioimmunoassay (RIA) directly or stored at -20° C. In all cases, results are expressed as ng metabolite/4×10^6 cells.
Raw data (dpm) may be stored directly onto an "Autostart" tape using the HP85 in room C-096. The raw data are converted to ng metabolite/4-10^6cells using the standard curve by a "RIANAL" program (HP85) or a "NONLIN" program (HP9816). Results are then expressed as percent inhibition of zymosan induced, leukotriene or prostaglandin synthesis (control) using the equation: [formula]

TPA-induced ear edema = assay: 12-o-tetradecanoylphorbol acetate (TPA)-induced murine ear edema assay; type: in vivo, mouse (Swiss Webster); conditions: TPA; for ED50: Mus musculus, sc, 4 h, read-out: Subcutaneous ED50; for Subcutaneous % Inhibition at 50 m/kg / ED50: subcutaneous
Description: The ability of the compounds of the invention to inhibit inflammatory responses is examined in the in vivo arachidonic acid (AA)/12-o-tetradecanoylphorbol acetate (TPA)-induced murine ear edema assay.
Swiss Webster female mice (Buckshire), approximately 8 weeks old are placed into plastic boxes in groups of six. Eight groups of mice receive AA topically on the right ear, and another 8 groups receive TPA topically on the right ear. AA and TPA are dissolved in acetone at concentrations of 100 mg/ml and 100 μg/ml respectively. The phlogistics are applied to the right ear by the means of an automatic pipet. Volumes of 10 μl are applied to the inner and outer surfaces of the ear. Each mouse receives either 2 mg/ear AA or 2 μg/ear TPA. The left ear (control) receives acetone delivered in the same manner. Topical and subcutaneous dosing regimens are as follows 1) drugs are given 30 minutes prior to AA treatment and 2) drugs are given 30 minutes after treatment with TPA.
Measurements are taken with Oditest calipers, 0-10 mm with 0.01 graduations. The right and left ears are measured after 1 hr AA-induced inflammation and 4 hours after TPA-induced inflammation.
The difference between right and left ear thickness is calculated and the significance is determined by a one way analysis of variance with Dunnett's comparisons to control (P=0.05). Drug effects are expressed as a percent change from control values: [formula]

[2] = Mus musculus, Peritoneal macrophage, zymosan stimulation

| Compound | inhibition at 10 µM (human platelet PLA2) | pIC50 [1] | inhibition at 10 µM [1] | pIC50 (5-lipoxygenase (LTC4); [2]) | Subcutaneous % Inhibition at 50 m/kg (TPA-induced ear edema; on line of vehicle acetone) | Topical % Inhibition at 200 μg (TPA-induced ear edema; vehicle acetone) | LTC4 AA % Inhibition (5-lipoxygenase (LTC4); dose 0.3 (unit not given)) | Subcutaneous % Inhibition at 50 m/kg (TPA-induced ear edema; on line of vehicle EPW) | Topical % Inhibition at 200 μg (TPA-induced ear edema; vehicle EPW) | pIC50 (human platelet PLA2) | LTC4 AA % Inhibition (5-lipoxygenase (LTC4); dose 5 (unit not given)) | ED50 (TPA-induced ear edema) | LTC4 AA % Inhibition (5-lipoxygenase (LTC4); dose 1.0 (unit not given)) | LTC4 AA % Inhibition (5-lipoxygenase (LTC4); dose 0.6 (unit not given)) | Topical % Inhibition at 200 μg (TPA-induced ear edema; vehicle not given) | LTC4 AA % Inhibition (5-lipoxygenase (LTC4); dose 0.5 (unit not given)) | inhibition at 0.1 µM (5-lipoxygenase (LTC4); [2]) | inhibition at 1 µM (5-lipoxygenase (LTC4); Mus musculus, Peritoneal macrophage, zymosan stimulation, 1.0 μM) | Subcutaneous % Inhibition at 50 m/kg (TPA-induced ear edema; no vehicle on line) | inhibition at 0.5 µM (5-lipoxygenase (LTC4); Mus musculus, Peritoneal macrophage, zymosan stimulation, 0.5 μM) |
| --- | --- | --- | --- | --- | --- | --- | --- | --- | --- | --- | --- | --- | --- | --- | --- | --- | --- | --- | --- | --- |
| CCCCCCCCCC(=O)C1=C(O)COC1=O [Example 1, 4-Hydroxy-3-(1-oxodecyl)-2(5H)-furanone] | 14.9% | 4.97 | 35.1% | 5.70 | 23% | 31% |  |  |  |  |  |  |  |  |  |  |  |  |  |  |
| CCCCCCCC/C=C\CCCCCCCC(=O)C1=C(O)COC1=O [Example 9, (Z)-4-Hydroxy-3-(1-oxo-9-octadecenyl)-2(5H)-furanone] | 18.5% | 5.96 | 97.3% | 6.70 | 7% | 42% | 8% | 28% | 56% |  |  |  |  |  |  |  |  |  |  |  |
| CCCCC/C=C\C/C=C\CCCCCCCC(=O)C1=C(O)COC1=O [Example 14, (Z,Z)-4-Hydroxy-3-(1-oxo-9,12-octadecadienyl)-2(5H)-furanone] | 44% | 6.32 | 95% |  | 21% | 28% |  | 37% | 51% | 5.77 | 61% | 118 mg/kg |  |  |  |  |  |  |  |  |
| CC/C=C\C/C=C\C/C=C\CCCCCCCC(=O)C1=C(O)COC1=O [Example 15, (Z,Z,Z)-4-Hydroxy-3-(1-oxo-9,12,15-octadecatrienyl)-2(5H)-furanone] | 30% |  | 77.5% | 6.35 |  | 34% |  |  |  |  |  |  |  |  |  |  |  |  |  |  |
| CCCCCCCCCCC/C=C\CCCCC(=O)C1=C(O)COC1=O [Example 18, (Z)-4-Hydroxy-3-(1-oxo-6-octadecenyl)-2(5H)-furanone] | 46% |  | 9% | 6.80 | 37% | 1% | -6% | 28% | 53% |  |  |  |  |  |  |  |  |  |  |  |
| CCCCC/C=C\C/C=C\C/C=C\CCCCC(=O)C1=C(O)COC1=O [Example 20, (Z,Z,Z)-4-Hydroxy-3-(1-oxo-6,9,12-octadecatrienyl)-2(5H)-furanone] | 62% |  | 81% | 6.15 | 76% | 80% |  |  | 81% |  |  | 31 mg/kg | -51% |  |  |  |  |  |  |  |
| CCCCCC1CC1CC1CC1CCCCCCCC(=O)C1=C(O)COC1=O (stereo not drawn) [Example 22, 4-Hydroxy-3-[1-oxo-8-[2-[(2-pentylcyclopropyl)methyl]cyclopropyl]octyl]-2(5H)-furanone] | 71% | 5.60 | 89.8% | 6.70 | 36% | 40% |  |  |  | 4.88 |  |  |  |  |  |  |  |  |  |  |
| CCCC/C=C\CCCCCCCC(=O)C1=C(O)COC1=O [Example 25, 4-Hydroxy-3-((Z)-1-oxo-9-tetradecenyl)-2(5H)-furanone] | 58.3% | 4.48 | 28.8% | 6.60 | 64% | 30% |  |  |  | 4.57 |  |  |  | -4% | 86% |  |  |  |  |  |
| O=C(CCCCCCC/C=C\c1ccc(Cl)cc1)C1=C(O)COC1=O [Example 35, 3-[(Z)-10-(4-chlorophenyl)-1-oxo-9-decenyl]-4-hydroxy-2(5H)-furanone] | 68.6% | 4.80 | 28.4% | 6.52 |  | 39% |  |  |  | 5.12 |  |  |  |  |  |  |  |  |  |  |
| CCCCC/C=C\C/C=C\CCCCCCCC(=O)C1=C(O)CSC1=O [Example 46, 4-Hydroxy-3[(Z,Z)-1-oxo-9,12-octadecadienyl]-2(5H)-thiophenone] | 16.4% |  | 72% | 6.52 | 73% | 41% |  |  | 82% |  |  | 46 mg/kg |  |  |  | -9% |  |  |  |  |
| CCCCCCCC/C=C\CCCCCCCC(=O)C1=C(O)CSC1=O [Example 47, 4-Hydroxy-3-[(Z)-1-oxo-9-octadecenyl]-2(5H)-thiophenone] | 13.8% |  | 34.8% | 7.00 | 77% | 74% | 9% |  | 69% |  |  |  |  |  |  |  | 46.2% |  |  |  |
| CCCC/C=C\CCCCCCCC(=O)C1=C(O)CSC1=O [Example 48, 4-Hydroxy-3-[(Z)-1-oxo-9-tetra-decenyl]-2(5H)-thiophenone] | 1.1% |  | 50.9% |  |  |  | -5% |  |  |  |  |  |  |  |  |  | 25.3% | 77.1% | 58% |  |
| CCCCC/C=C\C/C=C\C/C=C\CCCCC(=O)C1=C(O)CSC1=O [Example 50, 4-Hydroxy-3-[(Z,Z,Z)-1-oxo-6,9,12-octadecatrienyl]-2(5H)-thiophenone] | 14.1% |  | 55.9% |  |  |  |  |  |  |  |  | 19 mg/kg |  |  |  | -33% | 38.8% |  | 78% | 48.1% |
